The values that follow come from publication PMC7306898, “Concentration-Dependent Activity of Hydromethylthionine on Clinical Decline and Brain Atrophy in a Randomized Controlled Trial in Behavioral Variant Frontotemporal Dementia” (Journal of Alzheimer's Disease, 2020).

The test system of data set [1] is bvFTD patients. Put plainly: Functional Activities Questionnaire (FAQ), 52-week Phase III trial. Format: in vivo, human. An excerpt: The study was designed as a 52-week Phase III, randomized, controlled, double-blind, parallel-group trial conducted between May 2013 and February 2016 at 70 sites in Canada, United States, Australia, Asia, and Europe. Eligible patients had to be younger than 80 years of age with a diagnosis of bvFTD according to criteria revised by the International bvFTD Criteria Consortium [[1, 50]], with Mini-Mental Status Examination (MMSE) score greater than or equal to 20 at screening. In order to limit inclusion of bvFTD phenocopy cases, there was an additional requirement that patients had to meet the criterion of having definite brain atrophy in frontal and/or temporal lobes scoring 2 or more on a scale previously developed by Kipps et al.. Concomitant use of acetylcholinesterase inhibitors (AChEIs) or memantine (or both) was permitted provided this was at a stable dose for at least 18 weeks before randomization to minimize any potential early symptomatic effects of these treatments. Concomitant use of antidepressant, antipsychotic (except clozapine or olanzapine), and sedative medications was also permitted at stable doses where clinically feasible. Each patient had one or more study partners participate with them in the trial as informants. […] A detailed list of inclusion and exclusion criteria is in the protocol provided in the Supplementary Material. […]
The two doses were provided in identical blister packages as visually identical oral tablets to be taken for up to 52 weeks. […] Other outcomes included: Modified Alzheimer’s Disease Cooperative Study – Clinical Global Impression of Change (Modified-CGIC) determined by a third independent rater; Frontotemporal Dementia Rating Scale (FRS); MMSE (from MMSE items incorporated into ACE-R); Addenbrookes Cognitive Examination – III (a revised version of ACE-R which excludes MMSE items subject to copyright restrictions); change in brain volume measured by MRI in frontal and temporal lobes (FTV) and lateral ventricles (LVV); and the effect of hydromethylthionine in patients with known genetic mutations associated with bvFTD. […]

In data set [2] the test system is bvFTD patients. Put plainly: Whole brain volume (WBV) change by MRI (Boundary Shift Integral). It is filed as in vivo, human. From the text: (§1) The two doses were provided in identical blister packages as visually identical oral tablets to be taken for up to 52 weeks. The primary outcome was the Addenbrookes Cognitive Examination – Revised (ACE-R). The Functional Activities Questionnaire (FAQ) and reduction in progression of whole brain atrophy were alternative co-primary outcomes. Other outcomes included: Modified Alzheimer’s Disease Cooperative Study – Clinical Global Impression of Change (Modified-CGIC) determined by a third independent rater; Frontotemporal Dementia Rating Scale (FRS); MMSE (from MMSE items incorporated into ACE-R); Addenbrookes Cognitive Examination – III (a revised version of ACE-R which excludes MMSE items subject to copyright restrictions); change in brain volume measured by MRI in frontal and temporal lobes (FTV) and lateral ventricles (LVV); and the effect of hydromethylthionine in patients with known genetic mutations associated with bvFTD. Blood was collected prospectively for the purpose of population PK analyses.
MRI scans were obtained at screening and weeks 16, 32, and 52. The acquisition protocol was standardized across sites and all data were centrally collected, quality-controlled, and analyzed by the imaging core laboratory (Bioclinica). […] For data passing quality-control, baseline volume was automatically assessed using FreeSurfer v5.3, while volume changes were assessed using Boundary Shift Integral (whole brain, lateral ventricles) and Tensor-Based Morphometry (frontal and temporal lobes). […]
The primary analyses were specified as a mixed model, repeated-measures analysis with an unstructured covariance matrix and no imputation for missing data. The model included visit (three levels corresponding to assessments at weeks 16, 32, and 52), treatment group (two levels, 4 mg or 100 mg twice a day), a visit by treatment group interaction term, use of AD-labelled medications (two levels, using or not using), geographic region (three levels: North America, Asia/Australia, Europe), and baseline value of the variable analyzed. […]

In data set [3] the test system is bvFTD patients. Description: Modified-CGIC, 52-week Phase III trial. Format: in vivo, human.
Text: as §1
The primary analyses were specified as a mixed model, repeated-measures analysis with an unstructured covariance matrix and no imputation for missing data. The model included visit (three levels corresponding to assessments at weeks 16, 32, and 52), treatment group (two levels, 4 mg or 100 mg twice a day), a visit by treatment group interaction term, use of AD-labelled medications (two levels, using or not using), geographic region (three levels: North America, Asia/Australia, Europe), and baseline value of the variable analyzed. The individual comparisons were implemented through contrasts. The Bonferroni-Holm correction was used to take account of multiplicity arising from alternative co-primary outcomes (FAQ and whole brain atrophy). We used the same method for all secondary analyses in predefined gated sequences such that no further adjustment of alpha (0.05) was needed.
The concentration-response analyses used a Mixed-effect Model Repeat Measurement (MMRM) with per-subject correction and an unstructured covariance matrix according to the following formula: […]

In data set [4] the test system is subjects with AD or bvFTD. Also noted: method as in Developmental Safety Update Report #3. The settings on record: 1713 subjects randomized to LMTM (or matching placebo), blinded, as of 14 October 2014 ref Developmental Safety Update Report #3; cited from earlier work.
[5] abbreviates: 8 mg/day, plasma levels above vs below […] threshold.

In the case of `CN(C)c1ccc2c(c1)Sc1cc(N(C)C)ccc1N2` [hydromethylthionine, leuco-methylthioninium bis(hydromethanesulphonate)], the “FAQ: Decline±SEM for LMTM 8 mg/day group” value in the data set with bvFTD patients [1] (8 mg/day (n = 110), modeled change from baseline at 52 weeks, MITT) was 5.51±0.55. Besides, the “reduction in decline on the FAQ scale” value in the data set on bvFTD patients [1] (setting [5]) amounted to 46%. Also, the “FAQ: Difference±SEM from LMTM 8 mg/day for 200 mg/day” value with bvFTD patients [1] (200 mg/day (n = 104) vs 8 mg/day, 52 weeks, MITT) is “–0.39±0.84”. Also, the “WBV: Decline±SEM for LMTM 8 mg/day group” value with bvFTD patients [2] (8 mg/day, modeled change from baseline at 52 weeks) was “–21.64±1.56 cm^3”. The “reduction in whole brain atrophy” value in the data set with bvFTD patients [2] (setting [5]) is 42%. Besides, the “WBV: Difference±SEM from LMTM 8 mg/day for 200 mg/day” value with bvFTD patients [2] (200 mg/day vs 8 mg/day, 52 weeks) is “–1.35±2.32 cm^3”. Further, the “CGIC: Decline±SEM for LMTM 8 mg/day group” value in the data set on bvFTD patients [3] (8 mg/day (n = 110), 52 weeks) is listed as “–1.05±0.11”. The “reduction in decline, Modified-CGIC” value with bvFTD patients [3] (setting [5]) is reported as 48%. In addition, the “CGIC: Difference±SEM from LMTM 8 mg/day for 200 mg/day” value in the data set on bvFTD patients [3] (200 mg/day (n = 104) vs 8 mg/day, 52 weeks) was “–0.04±0.16”. The “cases of possible serotonin toxicity reported as AEs” value in data set [4] is 2.
